Values joined by “and” are separate entries in the source; they are usually repeats but may differ in a detail not shown here. Equal entries are not always repeated.

T1 sequence (O14842 whole entry): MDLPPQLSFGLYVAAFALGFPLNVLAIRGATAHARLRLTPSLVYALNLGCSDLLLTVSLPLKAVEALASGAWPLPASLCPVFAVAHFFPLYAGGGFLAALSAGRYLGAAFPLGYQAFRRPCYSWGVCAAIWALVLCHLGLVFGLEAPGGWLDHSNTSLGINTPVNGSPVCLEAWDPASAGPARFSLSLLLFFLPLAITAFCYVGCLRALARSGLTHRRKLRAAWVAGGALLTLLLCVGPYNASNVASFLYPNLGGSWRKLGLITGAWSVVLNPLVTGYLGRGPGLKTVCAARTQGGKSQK

This assay concerns the target T1, human GPR40 (Homo sapiens, UniProt O14842).
T1 construct: expressed in transfected cells
Briefly: GPR40 Calcium Flux Assay. Format: cell-based. The conditions noted are these: transfected HEK293 cells stably expressing human GPR40; calcium-sensitive fluorescent dye; read-out: hGPR40 Ca^2+ Assay EC50. As to the method:
Compounds were tested in a calcium flux assay using transfected HEK293 cells stably expressing either human GPR40 or rat GPR40. Human GPR40 expressing cells were cultured in DMEM-High Glucose media supplemented with 10% fetal bovine serum, 1×L-Glutamine, 1×Penicillin/Streptomycin and 500 μg/mL G418. Rat GPR40 expressing cells were cultured in DMEM-High Glucose media supplemented with 10% fetal bovine serum and 1 μg/mL puromycin. Cells were plated into poly-D-lysine coated 384-well plates and cultured overnight in a 37° C. humidified tissue culture incubator under 5% CO2/[…] atmosphere. On the day of the experiment, the culture media was replaced with assay buffer (HBSS, 20 mM HEPES, 0.1% BSA) and the cells incubated at 37° C. for 1 h. Calcium-sensitive fluorescent dye (Fluo 8 No-Wash Calcium Dye, ABD Bioquest) was then added and the cells incubated for another 30 min at 37° C. followed by 15 min at room temperature while protected from the light. The cell plate and a plate of diluted compounds of Formula (II) were loaded into a fluorescent plate reader that added compounds onto the cells while measuring the fluorescence intensity of each well. The plate reader recorded fluorescence intensity at 1 second intervals for 8 min and provided the data for analysis in an Excel format. EC50 values were calculated using Prism (GraphPad) software.
As for `COc1ccc(F)c(-c2noc(/C=C/c3cccc(C(CC(=O)O)C4CC4)c3)c2C2CC2)c1` (stereo in doubt) [Cpd 58, (3S)-3-cyclopropyl-3-[3-[(E)-2-[4-cyclopropyl-3-(2-fluoro-5-methoxy-phenyl)isoxazol-5-yl]vinyl]phenyl]propanoic acid], the concentration giving a half-maximal response (EC50) was found to be 26 nM.

Take `COc1ccc(F)c(-c2noc(COc3cc(C(CC(=O)O)C4CC4)ccn3)c2C2=CCCC2(C)C)c1` (stereo not shown) [Cpd 53, 3-cyclopropyl-3-[2-[[4-(5,5-dimethylcyclopenten-1-yl)-3-(2-fluoro-5-methoxy-phenyl)isoxazol-5-yl]methoxy]-4-pyridyl]propanoic acid]: the EC50 stood at 1 nM.

On to `COc1ccc(F)c(-c2noc(CCc3cccc([C@@H](CC(=O)O)C4CC4)c3)c2C2CCCC2(C)C)c1` (stereo partly drawn) [Cpd 54, (3S)-3-cyclopropyl-3-[3-[2-[4-(2,2-dimethylcyclopentyl)-3-(2-fluoro-5-methoxy-phenyl)isoxazol-5-yl]ethyl]phenyl]propanoic acid], for which the EC50 amounted to 1 nM.

Consider `COc1ccc(F)c(-c2noc(COc3cc(C(CC(=O)O)C4CC4)c(Cl)cn3)c2C2=CCCC2(C)C)c1` (stereo not shown) [Cpd 55, 3-[5-chloro-2-[[4-(5,5-dimethylcyclopenten-1-yl)-3-(2-fluoro-5-methoxy-phenyl)isoxazol-5-yl]methoxy]-4-pyridyl]-3-cyclopropyl-propanoic acid], for which the concentration giving a half-maximal response (EC50) is 22 nM.

For the compound `COc1ccc(F)c(-c2noc(/C=C/c3cccc([C@@H](CC(=O)O)C4CC4)c3)c2C2=CCCC2(C)C)c1` [Cpd 56, (3S)-3-cyclopropyl-3-[3-[(E)-2-[4-(5,5-dimethylcyclopenten-1-yl)-3-(2-fluoro-5-methoxy-phenyl)isoxazol-5-yl]vinyl]phenyl]propanoic acid], the EC50 stood at 23 nM.

`COc1ccc(F)c(-c2noc(CCc3cccc([C@@H](CC(=O)O)C4CC4)c3)c2C2CC2)c1` [Cpd 57, (3S)-3-cyclopropyl-3-[3-[2-[4-cyclopropyl-3-(2-fluoro-5-methoxy-phenyl)isoxazol-5-yl]ethyl]phenyl]propanoic acid]: the EC50 came out at 25 nM.

Take `COc1ccc(F)c(-c2noc(/C=C\c3cccc([C@@H](CC(=O)O)C4CC4)c3)c2C2=CCCC2(C)C)c1` [Cpd 59, (3S)-3-cyclopropyl-3-[3-[(Z)-2-[4-(5,5-dimethylcyclopenten-1-yl)-3-(2-fluoro-5-methoxy-phenyl)isoxazol-5-yl]vinyl]phenyl]propanoic acid]: the EC50 was 252 nM.

Take `COc1ccc(F)c(-c2cc(COc3cccc([C@@H](CC(=O)O)C4CC4)c3)sc2C(C)(C)C)c1` [Cpd 60, (3S)-3-[3-[[5-tert-butyl-4-(2-fluoro-5-methoxy-phenyl)-2-thienyl]methoxy]phenyl]-3-cyclopropyl-propanoic acid]: the EC50 was 56 nM and 29 nM.

For the compound `COc1ccc(F)c(-c2nsc(COc3cccc([C@@H](CC(=O)O)C4CC4)c3)c2C2=CCCC2(C)C)c1` [Cpd 61, (3S)-3-cyclopropyl-3-[3-[[4-(5,5-dimethylcyclopenten-1-yl)-3-(2-fluoro-5-methoxy-phenyl)isothiazol-5-yl]methoxy]phenyl]propanoic acid], the EC50 is 260 nM and 205 nM.

For `COc1ccc(F)c(-c2noc(COc3cccc([C@@H](CC(=O)O)C4CC4)c3)c2C2=CCCC2(C)C)c1` [Cpd 62, (3S)-3-cyclopropyl-3-[3-[[4-(5,5-dimethylcyclopenten-1-yl)-3-(2-fluoro-5-methoxy-phenyl)isoxazol-5-yl]methoxy]phenyl]propanoic acid], the EC50 turned out to be 1 nM.

The values above are taken from patent publication US9908873B2, “GPR40 agonists for the treatment of type II diabetes” (Janssen Pharmaceutica NV, priority 2015, dated 2018).
